This note sets out measurements from patent US8440830B2, “Tetrahydro-fused pyridines as histone deacetylase inhibitors” (4SC AG, priority 2007, dated 2013).

The assay deals with A549 NSCLC cells. The experiment in a line: Cellular cytotoxicity assay (Alamar Blue), A549. Conditions: Homo sapiens, 72 h, upper end given as ≧100, read-out: IC50 (μM), cytotoxicity towards A549 NSCLC cells. It is filed as cell-based. In a few lines: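 Cells were dosed 24 h after seeding with semi-log compound dilutions in quadruplicate, then incubated 72 h at 37 °C, 5% CO2. Viability read by Resazurin reduction (4 h, fluorescence 544/590 nm) relative to untreated 0.5% DMSO controls; IC50 by non-linear regression.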
For orientation: Resazurin is reduced to fluorescent resorufin, in cell work by metabolically active cells.

SMILES strings stand for the structures. Bounds are passed on as bounds.

A word on the IC50: it is the midpoint of a concentration-inhibition curve. Turning to `COc1ccc(N=C(C)N2CCc3nc(C(=O)Nc4cc(OC)ccc4N)sc3C2)cc1` [Example 130, N-(2-amino-5-methoxyphenyl)-5-[N-(4-methoxyphenyl)ethanimidoyl]-4,5,6,7-tetrahydro[1,3]thiazolo[5,4-c]pyridine-2-carboxamide], the 50% inhibitory concentration (IC50) is no less than 0.2 µM.
For `COc1ccc(N)c(NC(=O)c2nc3c(s2)CN(C(C)=Nc2ccc(OC)c(OC)c2)CC3)c1` [Example 131, N-(2-amino-5-methoxyphenyl)-5-[N-(3,4-dimethoxyphenyl)ethanimidoyl]-4,5,6,7-tetrahydro[1,3]thiazolo[5,4-c]pyridine-2-carboxamide] the value was no less than 0.2 µM; for `COc1ccc(N=C(C)N2CCc3nc(C(=O)Nc4cc(C(C)C)ccc4N)sc3C2)cc1` [Example 132, N-(2-amino-5-isopropylphenyl)-5-[N-(4-methoxyphenyl)ethanimidoyl]-4,5,6,7-tetrahydro[1,3]thiazolo[5,4-c]pyridine-2-carboxamide], no less than 0.2 µM.
For `COc1ccc(N=C(C)N2CCc3nc(C(=O)Nc4cc(C(C)C)ccc4N)sc3C2)cc1OC` [Example 133, N-(2-amino-5-isopropylphenyl)-5-[N-(3,4-dimethoxyphenyl)ethanimidoyl]-4,5,6,7-tetrahydro[1,3]thiazolo[5,4-c]pyridine-2-carboxamide] the value was no less than 0.2 µM.
For `CC(=Nc1ccc(N(C)C)cc1)N1CCc2nc(C(=O)Nc3ccccc3N)sc2C1` [Example 134, N-(2-aminophenyl)-5-{N-[4-(dimethylamino)phenyl]ethanimidoyl}-4,5,6,7-tetrahydro[1,3]thiazolo[5,4-c]pyridine-2-carboxamide] the value was no less than 0.2 µM.
Consider `CC(=Nc1ccccc1)N1CCc2nc(C(=O)Nc3cc(C(C)C)ccc3N)sc2C1` [Example 135, N-(2-amino-5-isopropylphenyl)-5-[N-phenylethanimidoyl]-4,5,6,7-tetrahydro[1,3]thiazolo[5,4-c]pyridine-2-carboxamide], for which the half-maximal inhibitory concentration (IC50) is no less than 0.2 µM.
For `Nc1ccccc1NC(=O)c1nc2c(s1)CN(C(=C[N+](=O)[O-])Nc1ccccc1)CC2` [Example 136, N-(2-aminophenyl)-5-[1-anilino-2-nitroyinyl]-4,5,6,7-tetrahydro[1,3]thiazolo[5,4-c]pyridine-2-carboxamide] the value was no less than 0.2 µM; for `COc1ccc(NC(=C[N+](=O)[O-])N2CCc3nc(C(=O)Nc4ccccc4N)sc3C2)cc1` [Example 137, N-(2-aminophenyl)-5-{1-[(4-methoxyphenyl)amino]-2-nitroyinyl}-4,5,6,7-tetrahydro[1,3]thiazolo[5,4-c]pyridine-2-carboxamide], no less than 0.2 µM.
`CCCCNC(=C[N+](=O)[O-])N1CCc2nc(C(=O)Nc3ccccc3N)sc2C1` [Example 138, N-(2-aminophenyl)-5-[1-(butylamino)-2-nitrovinyl]-4,5,6,7-tetrahydro[1,3]thiazolo[5,4-c]pyridine-2-carboxamide]: the IC50 is no less than 0.2 µM.
For `CC(C)c1ccc(NC(=C[N+](=O)[O-])N2CCc3nc(C(=O)Nc4ccccc4N)sc3C2)cc1` [Example 139, N-(2-aminophenyl)-5-{1-[(4-isopropylphenyl)amino]-2-nitrovinyl}-4,5,6,7-tetrahydro[1,3]thiazolo[5,4-c]pyridine-2-carboxamide] the value was no less than 0.2 µM.
For `CN(C)c1ccc(NC(=C[N+](=O)[O-])N2CCc3nc(C(=O)Nc4ccccc4N)sc3C2)cc1` [Example 140, N-(2-aminophenyl)-5-[1-{[4-(dimethylamino)phenyl]amino}-2-nitrovinyl]-4,5,6,7-tetrahydro[1,3]thiazolo[5,4-c]pyridine-2-carboxamide] the value was no less than 0.2 µM.
For `COc1ccc(NC(=C[N+](=O)[O-])N2CCc3nc(C(=O)Nc4ccccc4N)sc3C2)cc1OC` [Example 141, N-(2-aminophenyl)-5-{1-[(3,4-dimethoxyphenyl)amino]-2-nitrovinyl}-4,5,6,7-tetrahydro[1,3]thiazolo[5,4-c]pyridine-2-carboxamide] the value was no less than 0.2 µM.
Consider `COc1ccc(NC(=C[N+](=O)[O-])N2CCc3nc(C(=O)Nc4cc(OC)ccc4N)sc3C2)cc1` [Example 142, N-(2-amino-5-methoxyphenyl)-5-{1-[(4-methoxyphenyl)amino]-2-nitrovinyl}-4,5,6,7-tetrahydro[1,3]thiazolo[5,4-c]pyridine-2-carboxamide], for which the half-inhibitory concentration (IC50) is no less than 0.2 µM.
`COc1ccc(N)c(NC(=O)c2nc3c(s2)CN(C(=C[N+](=O)[O-])Nc2ccc(C(C)C)cc2)CC3)c1` [Example 143, N-(2-amino-5-methoxyphenyl)-5-{1-[(4-isopropylphenyl)amino]-2-nitrovinyl}-4,5,6,7-tetrahydro[1,3]thiazolo[5,4-c]pyridine-2-carboxamide]: the half-maximal inhibitory concentration (IC50) is no less than 0.2 µM.
For `COc1ccc(N)c(NC(=O)c2nc3c(s2)CN(C(=C[N+](=O)[O-])Nc2ccc(N(C)C)cc2)CC3)c1` [Example 144, N-(2-amino-5-methoxyphenyl)-5-[1-{[4-(dimethylamino)phenyl]amino}-2-nitrovinyl]-4,5,6,7-tetrahydro[1,3]thiazolo[5,4-c]pyridine-2-carboxamide] the value was no less than 0.2 µM.
For `CC(C)c1ccc(N)c(NC(=O)c2nc3c(s2)CN(C(=C[N+](=O)[O-])Nc2ccccc2)CC3)c1` [Example 145, N-(2-amino-5-isopropylphenyl)-5-[1-anilino-2-nitrovinyl]-4,5,6,7-tetrahydro[1,3]thiazolo[5,4-c]pyridine-2-carboxamide] the value was no less than 0.2 µM.
In the case of `COc1ccc(NC(=C[N+](=O)[O-])N2CCc3nc(C(=O)Nc4cc(C(C)C)ccc4N)sc3C2)cc1` [Example 146, N-[2-amino-5-(1-methylethyl)phenyl]-5-{1-[(4-methoxyphenyl)amino]-2-nitroethenyl}-4,5,6,7-tetrahydro[1,3]thiazolo[5,4-c]pyridine-2-carboxamide], the IC50 is no less than 0.2 µM.
For `CC(C)c1ccc(N)c(NC(=O)c2nc3c(s2)CN(C(=C[N+](=O)[O-])Nc2ccc(N(C)C)cc2)CC3)c1` [Example 147, N-(2-amino-5-isopropylphenyl)-5-[1-{[4-(dimethylamino)phenyl]amino}-2-nitrovinyl]-4,5,6,7-tetrahydro[1,3]thiazolo[5,4-c]pyridine-2-carboxamide] the value was no less than 0.2 µM; for `CC(C)c1ccc(NC(=C[N+](=O)[O-])N2CCc3nc(C(=O)Nc4cc(C(C)C)ccc4N)sc3C2)cc1` [Example 148, N-(2-amino-5-isopropylphenyl)-5-{1-[(4-isopropylphenyl)amino]-2-nitrovinyl}-4,5,6,7-tetrahydro[1,3]thiazolo[5,4-c]pyridine-2-carboxamide], no less than 0.2 µM; for `COc1ccc(N)c(NC(=O)c2nc3c(s2)CN(C(=C[N+](=O)[O-])Nc2ccc(F)cc2)CC3)c1` [Example 149, N-(2-amino-5-methoxyphenyl)-5-{1-[(4-fluorophenyl)amino]-2-nitrovinyl}-4,5,6,7-tetrahydro[1,3]thiazolo[5,4-c]pyridine-2-carboxamide], no less than 0.2 µM.
`Nc1ccccc1NC(=O)c1nc2c(s1)CN(S(=O)(=O)Cc1ccccc1)CC2` [Example 151, N-(2-aminophenyl)-5-(benzylsulfonyl)-4,5,6,7-tetrahydro[1,3]thiazolo[5,4-c]pyridine-2-carboxamide]: the IC50 was no less than 0.2 µM.
`CC(=O)Nc1ccc(S(=O)(=O)N2CCc3nc(C(=O)Nc4ccccc4N)sc3C2)cc1` [Example 155, 5-[(4-acetamidophenyl)sulfonyl]-N-(2-aminophenyl)-4,5,6,7-tetrahydro[1,3]thiazolo[5,4-c]pyridine-2-carboxamide]: the 50% inhibitory concentration (IC50) is no less than 0.2 µM.
For `Nc1ccccc1NC(=O)c1nc2c(s1)CN(S(=O)(=O)c1ccc3ccccc3c1)CC2` [Example 156, N-(2-aminophenyl)-5-(2-naphthylsulfonyl)-4,5,6,7-tetrahydro[1,3]thiazolo[5,4-c]pyridine-2-carboxamide] the value was no less than 0.2 µM.
For `Nc1ccccc1NC(=O)c1nc2c(s1)CN(S(=O)(=O)c1cccs1)CC2` [Example 157, N-(2-aminophenyl)-5-(2-thienylsulfonyl)-4,5,6,7-tetrahydro[1,3]thiazolo[5,4-c]pyridine-2-carboxamide] the value was no less than 0.2 µM; for `COC(=O)c1sccc1S(=O)(=O)N1CCc2nc(C(=O)Nc3ccccc3N)sc2C1` [Example 158, Methyl 3-({2-[(2-aminophenyl)carbamoyl]-6,7-dihydro[1,3]thiazolo[5,4-c]pyridin-5(4H)-yl}sulfonyl)thiophene-2-carboxylate], no less than 0.2 µM; for `CC(=O)Nc1nc(C)c(S(=O)(=O)N2CCc3nc(C(=O)Nc4ccccc4N)sc3C2)s1` [Example 159, 5-[(2-acetamido-4-methyl-1,3-thiazol-5-yl)sulfonyl]-N-(2-aminophenyl)-4,5,6,7-tetrahydro[1,3]thiazolo[5,4-c]pyridine-2-carboxamide], no less than 0.2 µM.
For `Nc1ccccc1NC(=O)c1nc2c(s1)CN(S(=O)(=O)c1ccc(C(F)(F)F)cc1)CC2` [Example 161, N-(2-aminophenyl)-5-{[4-(trifluoromethyl)phenyl}sulfonyl]-4,5,6,7-tetrahydro[1,3]thiazolo[5,4-c]pyridine-2-carboxamide] the value was no less than 0.2 µM; for `Nc1ccccc1NC(=O)c1nc2c(s1)CN(S(=O)(=O)c1cccc(C(F)(F)F)c1)CC2` [Example 162, N-(2-aminophenyl)-5-{[3-(trifluoromethyl)phenyl]sulfonyl}-4,5,6,7-tetrahydro[1,3]thiazolo[5,4-c]pyridine-2-carboxamide], no less than 0.2 µM; for `Nc1ccccc1NC(=O)c1nc2c(s1)CN(S(=O)(=O)c1cccc(F)c1)CC2` [Example 163, N-(2-aminophenyl)-5-[(3-fluorophenyl)sulfonyl]-4,5,6,7-tetrahydro[1,3]-thiazolo[5,4-c]pyridine-2-carboxamide], no less than 0.2 µM.
Turning to `CC(C)S(=O)(=O)N1CCc2nc(C(=O)Nc3ccccc3N)sc2C1` [Example 164, N-(2-aminophenyl)-5-(isopropylsulfonyl)-4,5,6,7-tetrahydro[1,3]thiazolo[5,4-c]pyridine-2-carboxamide], the IC50 was no less than 0.2 µM.
